Test system: ovalbumin (OA) induced bronchial hyperresponsiveness
Experiment: Pulmonary function test, OA induced bronchial hyperresponsiveness in BNR
Type: in vivo, brown Norway rats (BNR)
Excerpt: The requirements for animal models include both specificity and the capacity for developing pulmonary histopathological lesions that are similar to those found in the corresponding human disorders. In view of the above considerations, three kinds of animal models were adopted for the experiments used in developing this invention. Two were invasive method and one was non-invasive method. The first and second invasive models were BNR and guinea pig asthma model induced by ovalbumin (OA). Twenty four either BNR (weight ranging from 250˜350 g) or guinea pig (380˜500 g) were divided into three groups. Each group consisted of 8 weight-matched male animals. Both group I and group II BNR were put into a closed chamber (30×30×16 cm plastic box) with two small holes, one serving as a gas inlet and the other as a gas outlet. Two mL of 1% OA was aerosolized by nebulizer and delivered continuously into the closed chamber with a gas delivery flow of 8 l/min. The animal was exposed to OA in the chamber for 10 minutes.
A second sensitization was performed 7 days later using the same procedure. Another 7 days later, a provocation test was performed. To prevent anaphylaxis and possible death, the animals were pretreated with pyrinamine (10 mg/kg) intraperitoneally 30 minutes before the test. For provocation, the BNR inhaled 3 mL of 4% aerosolized OA by nebulizer for 10 minutes in a closed chamber, using the same procedure as for sensitization. Group I BNR or guinea pig were given Cordyceps sinensis active fraction F-4 4 mg/kg intraperitoneally 30 minutes before OA inhalation provocation. Group II control animals were treated in the same way as […], except that they were sensitized and challenged by breathing aerosolized saline instead of OA and without Cordyceps sinensis pretreatment.
In the Cordyceps sinensis treatment study, the protocol is similar to pretreatment except F-4 is administed after OA inhalation provocation.
For the lung function and acetylcholine provocation portion of the study, all animals were anesthetized with sodium pentobarbitone (50 mg/kg intraperitoneally). Jugular vein cannulation (PE-10 polyethylene tube filled with heparin, 1000 iu/mL in normal saline) and tracheostomy were performed. Lung function test was done 24 hours after the OA provocation test. The BNRs or pignea pigs were put in a body box (Model 6 Body Box, Buxco, Troy, N.Y., USA) in a supine position while the mice were put in a body box for mice (Anesthetized Body Box for Mice, Buxco, Troy, N.Y., USA). Gallamine triethiodide (4 mg/kg) was intravenously injected to induce paralysis and inhibit spontaneous breathing. A small animal ventilator set at a tidal volume of 6 mL/kg and a respiratory rate of 60 times/minute for the BNRs, 120 times/minute for the mice was used to ventilate the small animals. All animals were stable without spontaneous breathing 5 minutes after gallamine was given. Pulmonary function tests (PET) as described below were measured at baseline. Therefore, 25, 50, 75 and 100 μg/kg of acetylcholine (Ach) were given intravenously at 30 minute intervals. PETs were done 5 seconds after each dose of acetylcholine. Before each successive dose of Ach, the flow volume loop returned to baseline.
The airway opening pressure (PaO) was measured by a Gould pressure transducer at the tracheotomy. Respiratory flow was measured by a DP-45-14 differential pressure transducer. When tidal breathing was examined, 3-layer 325-mesh wire screen was used to measure the pressure difference. When a maximal forced expiratory maneuver (MFEM) was performed, a 6-layer 325-mesh wire screen was used to measure the pressure difference.
For the MFEM, the lungs were inflated to total lung capacity 9TLC, lung volume at PaO=35 cm H2O) 3 times; the inflation was regulated by a solenoid valve. At peak volume during the third inflation, the inflation valve was shut off and another solenoid valve was opened immediately for deflation. […]

[1] = baseline, 4 mg/Kg intraperitoneally 30 minutes before OA inhalation provocation, mean±SD
[2] = pretreated before OA inhalation provocation (group I) vs OA-treated (group II), Ach doses higher than 25 μg/kg

## CC(C)[C@@H](C)C=C[C@@H](C)[C@H]1CC[C@H]2C3=C[C@@H](O)[C@@]4(O)C[C@@H](O)CC[C@]4(C)[C@H]3CC[C@]12C [F8, (24R)-ergosta-7,22-diene-3β, 5α, 6β,-triol]
[1]
  Cdyn (total dynamic lung compliance): 0.53 ± 0.05 mL/cm H2O
  MFEF 25%: 35.3 ± 4.5 mL/s
  MFEF 50%: 75.7 ± 4.6 mL/s
  MFEF 75%: 101.5 ± 4.9 mL/s
  PaO (airway opening pressure at tidal breathing): 4.3 ± 0.6 cmH2O
  Peak flow: 105.6 ± 4.7 mL/s
  Total lung capacity: 15.4 ± 1.5 mL
[2]
  percentage of baseline MFEF 25% TLC, Ach dose response: group II was significantly lower then group I
  percentage of baseline MFEF 50% TLC, Ach dose response: group II was significantly lower then group I
Treatment study (administered after OA inhalation provocation), group I vs OA-treated group II
  PD20 Ach (dose of Ach producing a 20% drop) for MFEF 50% and MFEF 25%: significantly (p<0.001) lower in group II than in the other 2 groups
